Assay results published in PubChem BioAssay (NCI).
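Test compounds were applied to cells in 96-well plates for 48 hours at 5 doses. TGI denotes the concentration required for complete inhibition of growth.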

Tests used:
Experiment in all cases: NCI tumour cell line growth inhibition, 48 h
RXF-631 renal = test system: RXF-631 renal
KM20L2 colon = test system: KM20L2 colon
DMS 273 small cell lung = test system: DMS 273 small cell lung
XF 498 CNS = test system: XF 498 CNS
LXFL 529 NSCLC = test system: LXFL 529 NSCLC

| SMILES | TGI (RXF-631 renal) | TGI (KM20L2 colon) | TGI (DMS 273 small cell lung) | TGI (XF 498 CNS) | TGI (LXFL 529 NSCLC) |
| --- | --- | --- | --- | --- | --- |
| O=C1CCCCC2N(C(c3ccccc3)c3ccccc3)CC[C@@]12c1ccccc1 (mixture of isomers) | > 10 µM | > 10 µM | > 10 µM |  |  |
| Clc1ccccc1/C=C/c1cscn1 |  |  |  | > 100 µM | > 100 µM |
| C=CC1(C)CCC2=C(CCC3C(C)(C(=O)OC)CCCC23C)C1=O (stereo not drawn) | 31.6 µM | 40.3 µM |  |  | 36.4 µM |
